These results are taken from BindingDB's records for doi:10.1038/sj.bjp.0705908 (Abbott Laboratories, 2004).

For the test, the target named is T1, Calcium-activated potassium channel subunit beta (Sus scrofa, UniProt C0KY85).
T1 sequence (C0KY85 whole entry): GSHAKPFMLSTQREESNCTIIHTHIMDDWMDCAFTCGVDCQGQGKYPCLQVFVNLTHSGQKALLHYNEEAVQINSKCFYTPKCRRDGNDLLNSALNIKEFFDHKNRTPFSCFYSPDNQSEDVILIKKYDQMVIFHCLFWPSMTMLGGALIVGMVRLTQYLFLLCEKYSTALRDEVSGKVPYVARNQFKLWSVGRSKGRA

Turning to `CCC(C)(C)NC(=NC#N)Nc1cccnc1` [NSC_43345], the inhibitory constant (Ki) amounted to 10.7 nM.

Broadly, the Ki is a dissociation constant, usually derived from enzyme kinetics or from competition with a known ligand.
